# Assay results taken from US6448062B1, “Simultaneous cleaning and decontaminating compositions and methods” (priority 1998, dated 2002).
# Like-named read-outs stand apart in the source and are kept apart here.
# How the values were obtained:
# [1] = test system: Mycobacterium bovis (ATCC 35743); type: cell-based
# [2] = test system: Azocasein; test: In-situ protease activity assay: azocasein hydrolysis (Abs390) in H2O2/enzyme solutions; conditions: for Absorbance (normalized with dilution factor) of hydrolyzed Azocasein solution at 390 nm: pH 8.5, 23° C., 1% azocasein; for Abs390 hydrolyzed azocasein solution: human chymotrypsin experiment, 23° C.
# Description: Solutions of 7.5%^w/v H2O2 at various pH levels were prepared by adjusting the pH of 35%^w/w H2O2 solution (Degussa) with 10 mM K3PO4 in a volumetric flask in the presence of K2HPO4 (phosphate buffer, PB). The solution was diluted with 10 mM KH2PO4 solution of the same pH. […] Azocasein powder was added to the H2O2/Alcalase® mixed solutions to yield 0.4%^w/v azocasein. After 30 min at 23° C., 5 ml azocasein solution was mixed with 5 ml 10%^w/v TCA solution. Precipitates were removed after 15 min by filtration, and the supernatant Abs390 was measured.
# One half hour prior to various time points (listed in Tables 5a-d), azocasein powder was added to the solution in an amount of 0.4% of the total solution weight. Abs390 of the solution was measured as in Example 4 except that the supernatant was diluted 6-7 fold to avoid saturation of the UV spectrophotometer.
# An additional experiment employing the same method was conducted with human chymotrypsin.
# [3] = 25 minutes contact at 20° C.; cited from earlier work
# [4] = test system: spores of Bacillus subtilis (ATCC #19659); test: AOAC test for Sporicidal Activity of Disinfectants, porcelain penicylinders, no organic soil load; type: cell-based; conditions: for Results: positive penicylinders: exposure 4 hours
# [5] = test system: Azocasein; test: Azocasein hydrolysis (Abs390) by human trypsin or chymotrypsin in PAA/H2O2; conditions: 23° C.
# Description: The activity for the PAA/H2O2 solution alone as a control is also given. […] A volume of 4.05 ml of 10 mM K3PO4 buffer was combined with 0.45 ml initial trypsin buffer solution and 45 mg Azocasein to prepare the trypsin/phosphate buffer solution for the test.
# A 0.22%^w/v PAA/1.17%^w/v H2O2 solution was prepared using a dilution of Degussa's 4.9%^w/w PAA/26.6%^w/w H2O2 in a volumetric flask. A volume of 4.05 ml of the latter solution was mixed with 0.45 ml initial trypsin/phosphate buffer solution and 45 mg Azocasein powder.
# At 2.8 and 7 h, 1.5 ml sample aliquots were removed from the above three solutions and reacted with 1.5 ml of 10%^w/v trichloroacetic acid stop reagent. After incubating for 15-20 min, the solutions were filtered using Whatman #3 filter paper with a syringe and a Gelman 13 mm filter holder. The filtered solutions were then analyzed with a Shimadzu UV-visible 1601 spectrophotometer Abs390.
# An additional example with human chymotrypsin follows. The solutions were similarly prepared as above.
# [6] = test system: Azocasein; test: Enzyme activity in 0.368% PAA/2% H2O2, modified Novo azocasein method
# Description: In a 100 ml volumetric flask, a solution was prepared using 7.5 ml of 4.9%^w/w (Degussa) PAA, 1 ml enzyme, and diluted with 0.2 M tris(hydroxymethyl)aminomethane to control the pH at 8.5 to yield a final concentration of 0.368%^w/v PAA/2%^w/v H2O2. […] A timer was started as soon as the combinations of enzymes and PAA/H2O2 were mixed. At periodic intervals, aliquots of the enzyme/PAA/H2O2 solutions were removed and diluted 64 times to react with the 0.6%^w/v Azocasein substrate solution in a water bath at the modified temperature of 30° C. for 30 min. After stopping the reaction with 10% TCA and filtering the precipitate, the supernatants were analyzed on a spectrophotometer at 390 nm.
molecule,measurement,setting,value
"OO [6% H2O2 pH 1.8, hydrogen peroxide]",% Reduction,[1]; contact time 5 min,98.65%
same,log10 Reduction,[1]; contact time 5 min,1.87
same,% Reduction,[1]; contact time 10 min,99.25%
same,log10 Reduction,[1]; contact time 10 min,2.13
same,% Reduction,[1]; contact time 15 min,99.51%
same,log10 Reduction,[1]; contact time 15 min,2.31
same,% Reduction,[1]; contact time 20 min,99.38%
same,log10 Reduction,[1]; contact time 20 min,2.21
"c1ccc2[nH]nnc2c1 [Benzotriazole, 1,2,3-benzotriazole]",Absorbance (normalized with dilution factor) of hydrolyzed Azocasein solution at 390 nm,"[2]; 7.4 mM Na3PO4, 0.5 h",0.0986
same,Absorbance (normalized with dilution factor) of hydrolyzed Azocasein solution at 390 nm,"[2]; 7.4 mM Na3PO4, 4.5 h",0.1536
"CC(=O)OO [PAA, peracetic acid]",minimum effective concentration for high-level disinfection,[3],0.05 %w/w
"OO [Sample 10, hydrogen peroxide]",Results: positive penicylinders,[4],0 positive
"OO [Sample 11, hydrogen peroxide]",Results: positive penicylinders,[4],0 positive
"OO [Solutions of 7.5% H2O2 alone, hydrogen peroxide]",exposure at which sporicidal (no positive penicylinders),[4],≤ 4 h
Chymotrypsin,Absorbance at 390 nm of hydrolyzed Azocasein solution,"[5]; pH 7.25, 2 h",2.716
same,Absorbance at 390 nm of hydrolyzed Azocasein solution,"[5]; pH 7.25, 4 h",3.674
same,Absorbance Ratio of Chymotrypsin/Azocasein solutions with and without 7.5% H2O2,[2]; 2 h,0.308
same,Absorbance Ratio of Chymotrypsin/Azocasein solutions with and without 7.5% H2O2,[2]; 4 h,0.316
same,Abs390 hydrolyzed azocasein solution,"[2]; pH 7.75, 2 h",2.541
same,Abs390 hydrolyzed azocasein solution,"[2]; pH 7.75, 4 h",3.653
Trypsin: human trypsin (Sigma),Absorbance at 390 nm of hydrolyzed Azocasein solution,"[5]; pH 7.5, 1% azocasein, 2.8 h",1.4254
same,Absorbance at 390 nm of hydrolyzed Azocasein solution,"[5]; pH 7.5, 1% azocasein, 7 h",1.5588
"Alcalase ® 2.5 L: commercial subtilisin A liquid concentrate, 2.5 Anson units per gram (Novo Nordisk) (protein, UniProt P00780 106-379, looked up, commercial liquid concentrate) Subtilisin Carlsberg: AQTVPYGIPLIKADKVQAQGFKGANVKVAVLDTGIQASHPDLNVVGGASFVAGEAYNTDGNGHGTHVAGTVAALDNTTGVLGVAPSVSLYAVKVLNSSGSGSYSGIVSGIEWATTNGMDVINMSLGGASGSTAMKQAVDNAYAKGVVVVAAAGNSGSSGNTNTIGYPAKYDSVIAVGAVDSNSNRASFSSVGAELEVMAPGAGVYSTYPTNTYATLNGTSMASPHVAGAAALILSKHPNLSASQVRNRLSSTATYLGSSFYYGKGLINVEAAAQ",decrease in activity,"[6]; 0.368% PAA/2% H2O2, after 7.5 hours",13%
same,"Absorbance (proteolytic, 390 nm)","[6]; 0.368% PAA/2% H2O2, pH 8.5, 0 h",0.6534
same,"Absorbance (proteolytic, 390 nm)","[6]; 0.368% PAA/2% H2O2, pH 8.5, 3.2 h",0.6417
same,"Absorbance (proteolytic, 390 nm)","[6]; 0.368% PAA/2% H2O2, pH 8.5, 6.5 h",0.6729
same,"Absorbance (proteolytic, 390 nm)","[6]; 0.368% PAA/2% H2O2, pH 8.5, 7.5 h",0.5689
